Test: Human HepG2 cell viability assay in 384 well format
Type: toxicity, cell-based
Parameters: dose 125 nL, time 70.5 hour; concentration not given beside the values
Details: HepG2 cells, read-out: Inhibition

Cc1cc2[nH]c(=O)c(=O)[nH]c2cc1S(=O)(=O)NC1CCC(C)CC1 (stereo not drawn)
cytotoxicity at 70.5 h: -5.16%

O=C1c2c(O)cc(O)cc2O[C@@H](c2ccc(O)cc2)[C@@H]1O
cytotoxicity at 70.5 h: -7.81%

COC(=O)[C@@H]1Cc2ncn(C)c2CN1S(=O)(=O)c1ccc(Cl)cc1
cytotoxicity at 70.5 h: 10.2%

CC(=O)N1CC[C@H]2CC(=O)N(C3CC3)CC[C@H]2C1
cytotoxicity at 70.5 h: 14.2%

COc1ccc(CN2C[C@H](O)C[C@H]2c2nc(-c3ccccc3)no2)cc1
cytotoxicity at 70.5 h: 9.25%

CCN(CC)CC[C@H]1CN(C(=O)C2CCC2)CC[C@H]1CC(=O)O
cytotoxicity at 70.5 h: 5.37%

Cc1ccc(-c2noc([C@@H]3C[C@H](NC(=O)CC(C)(C)C)CN3C)n2)cc1
cytotoxicity at 70.5 h: -2%

Cc1noc([C@@H]2C[C@H](NC(=O)Nc3ccccc3)CN2C)n1
cytotoxicity at 70.5 h: -1.94%

CC(C)NC(=O)C[C@@H]1CCNC[C@@H]1Cc1cc(-c2ccccn2)on1
cytotoxicity at 70.5 h: -16.5%

COC(=O)[C@@H]1CN(S(=O)(=O)c2ccccc2)CCN1S(C)(=O)=O
cytotoxicity at 70.5 h: -7.6%

Cc1nn(-c2ccccn2)c(C)c1[C@@H]1C=C[C@@H](NC(=O)CCC(=O)O)C1
cytotoxicity at 70.5 h: -6.4%

N#Cc1ccc(CN2C[C@@H]3OCC(=O)N[C@@H]3C2)cc1
cytotoxicity at 70.5 h: -5.15%

c1cc(-c2noc([C@@H]3Cc4nc[nH]c4CN3)n2)ccn1
cytotoxicity at 70.5 h: 1.06%

CC(C)N1C[C@@H](F)[C@@H](OCc2nc3ncccc3[nH]2)C1
cytotoxicity at 70.5 h: -0.523%

Oc1cccc(-c2cc(CC3(N(CC4CC4)CC4CC4)COC3)no2)c1
cytotoxicity at 70.5 h: -6.61%

CC1(C)[C@H](Cc2cc(CO)on2)C[C@@H]1N(CC1CC1)CC1CC1
cytotoxicity at 70.5 h: 5.68%

COC(=O)[C@@H]1Cc2ncn(C)c2CN1S(=O)(=O)c1ccc(C)cc1
cytotoxicity at 70.5 h: -8.32%

CC(C)N1C[C@@H]2OCC(=O)N(Cc3ccccc3)[C@@H]2C1
cytotoxicity at 70.5 h: -10.2%

COc1ccc(-c2c[nH]c([C@@H]3COCCN3)n2)cc1
cytotoxicity at 70.5 h: 1.65%

CN1C[C@H](O)C[C@H]1c1nc(-c2ccc(OC(F)(F)F)cc2)no1
cytotoxicity at 70.5 h: -6.54%

Cn1ccnc1CN1C[C@H]2CN(S(C)(=O)=O)CCN2C1=O
cytotoxicity at 70.5 h: -0.342%

CC(C)c1noc([C@@H]2C[C@H](NS(=O)(=O)Cc3ccccc3)CN2C)n1
cytotoxicity at 70.5 h: -0.576%

CO[C@H]1COCCN(C(=O)c2ccc(C#N)cc2)C1
cytotoxicity at 70.5 h: 9.9%

Cc1ccc(-c2cn3c(n2)CO[C@@H](CNCc2cnn(C)c2)C3)cc1
cytotoxicity at 70.5 h: 6.98%

CC(=O)N1CC[C@H](c2nnc(Cc3c[nH]c4ccccc34)o2)C1
cytotoxicity at 70.5 h: -3.38%

c1ccc(CNC[C@H]2COCc3nc4cccnc4n32)cc1
cytotoxicity at 70.5 h: 11.9%

CCNC(=O)N[C@H]1C[C@@H](Cc2cc(CN3CCCCC3)on2)C1(C)C
cytotoxicity at 70.5 h: -4.13%

FC(F)(F)c1ccc2nc([C@H]3CCN(C4CCOCC4)C3)[nH]c2c1
cytotoxicity at 70.5 h: -12.9%

Cc1nnc([C@H]2CCN(CCCc3ccccc3)C2)o1
cytotoxicity at 70.5 h: 8.95%

c1cncc(O[C@H]2COCCN(CC3CC3)C2)c1
cytotoxicity at 70.5 h: 0.0943%

CC(C)Cc1cc(CC2(NCc3ccco3)COC2)no1
cytotoxicity at 70.5 h: -3.13%

COc1ccc(CNC2(Cc3cc(CC(C)C)on3)COC2)cc1
cytotoxicity at 70.5 h: 9.64%

COc1ccc(-c2noc([C@@H]3C[C@@H](O)CN3C3CCCCC3)n2)cc1
cytotoxicity at 70.5 h: -1.99%

CC1=C[C@@H](CNS(C)(=O)=O)[C@H](C(C)C)C[C@H]1CC(=O)NCCN(C)C
cytotoxicity at 70.5 h: 1.17%

O=C(C1CC1)N1CC[C@H](c2nc3ccccc3o2)C1
cytotoxicity at 70.5 h: 5.84%

Cc1ccc(N2C(=O)N[C@@H]3CCN(C(=O)C4CCCC4)[C@@H]3C2=O)cc1
cytotoxicity at 70.5 h: -13.1%

COc1ccc(CN2C[C@@H]3OCC(=O)N(Cc4nccn4C)[C@@H]3C2)cc1
cytotoxicity at 70.5 h: -3.1%

Cc1cc2c(C)cc(O)cc2c(=O)o1
cytotoxicity at 70.5 h: -14.8%

COc1ccc(NC(=O)Nc2c(O)c3ccccc3oc2=O)cc1
cytotoxicity at 70.5 h: -1.02%

CCOCc1nc(N2CCOCC2)sc1C(=O)NCCCc1ccco1
cytotoxicity at 70.5 h: 0.741%

CCN(CC)CCNCC1CCOC(C)(C)C1 (stereo not drawn)
cytotoxicity at 70.5 h: -5.74%

CC(C)NC(=O)COc1cccc(-c2nc(C(C)C)no2)c1
cytotoxicity at 70.5 h: 20.9%

COC(=O)c1ccccc1NC(=O)c1c(C)cn(C)c1CC(=O)O
cytotoxicity at 70.5 h: 18.3%

Cc1cc2[nH]c(=O)c(=O)[nH]c2cc1S(=O)(=O)NC1CCCCC1
cytotoxicity at 70.5 h: -3.77%

COc1cccc(CNC(=O)CCC2=Nc3ccccc3S(=O)(=O)N2)c1
cytotoxicity at 70.5 h: -1.77%

Cc1cccn2c(=O)cc(CSCC(=O)Nc3nnc(C(C)C)s3)nc12
cytotoxicity at 70.5 h: 1.52%

CCn1nc(Br)nc1Sc1ccccc1NC(C)=O
cytotoxicity at 70.5 h: -0.88%

Cc1ccn(CCC(=O)NC(C)Cc2ccco2)n1 (stereo not drawn)
cytotoxicity at 70.5 h: -6.56%

CC1CCCCN1c1nc2c(c(=O)[nH]1)CCN(Cc1cccnc1)C2 (stereo not drawn)
cytotoxicity at 70.5 h: -3.39%

CCC(=O)N1CCc2nc3cc(OC)c(OC)cc3c(=O)n2CC1
cytotoxicity at 70.5 h: 29.2%

CCN1CCN(c2ncc(-c3cc(C)no3)c(-c3ccc(C)s3)n2)CC1
cytotoxicity at 70.5 h: -27.4%

O=C(O)CCc1cccc(C2CCCN2Cc2ccc(F)c(F)c2)n1 (stereo not drawn)
cytotoxicity at 70.5 h: -6.64%

Cc1ncccc1Oc1nccnc1C1CCN(C(C)C)CC1
cytotoxicity at 70.5 h: -2.72%

Cn1nc(C2CCCN(C(=O)CO)C2)cc1O (stereo not drawn)
cytotoxicity at 70.5 h: 19.8%

CC(=O)N1CCNCC1c1cccc(C(=O)N(C)C)c1 (stereo not drawn)
cytotoxicity at 70.5 h: -8.36%

O=C(c1n[nH]c(=O)c2ccccc12)N1CCCCC1c1ccn[nH]1 (stereo not drawn)
cytotoxicity at 70.5 h: -8.63%

CNC(=O)C1(c2cnccn2)CCCN1C(=O)c1ccn(C)n1 (stereo not drawn)
cytotoxicity at 70.5 h: -1.48%

CC(C)C(=O)N1CCN(Cc2cc(-c3ccncc3)nn2C)CC1
cytotoxicity at 70.5 h: 31.9%

CCC(=O)N1CCN(Cc2cc(-c3ccncc3)nn2C)CC1
cytotoxicity at 70.5 h: 5.2%

CN1CCCC[C@@H]2[C@H]1[C@@H](c1ccccc1)CCN2C(=O)c1cnccn1
cytotoxicity at 70.5 h: 1.76%

Cc1nc(O)c2nnn(C[C@H]3CCCN3C(=O)c3cccc(F)c3)c2n1
cytotoxicity at 70.5 h: -7.83%

CN1CCCC(c2n[nH]c3ncccc23)C1 (stereo not drawn)
cytotoxicity at 70.5 h: -11.4%

CCc1c(C)nc2cc(C3CCN(Cc4ccccc4F)C3)nn2c1O (stereo not drawn)
cytotoxicity at 70.5 h: -2.56%

O=C(c1ccccn1)N1CCc2nc(-c3cnccn3)nc(O)c2C1
cytotoxicity at 70.5 h: -3.62%

O=C(Cc1ccccn1)N1CCc2nc(-c3cnccn3)nc(O)c2C1
cytotoxicity at 70.5 h: -4.01%

COc1ccc(-c2cc(C3CCCCCN3S(=O)(=O)N(C)C)on2)cc1 (stereo not drawn)
cytotoxicity at 70.5 h: 8.12%

Cc1cc(O)nc(C2CCCN(Cc3ccncc3)C2)n1 (stereo not drawn)
cytotoxicity at 70.5 h: -0.0773%

c1cnc2c(C3CCN(Cc4ccsc4)CC3)n[nH]c2n1
cytotoxicity at 70.5 h: 42.8%

O=C1NCC2(CCCN(CCc3ccccc3)C2)Oc2ccccc21 (stereo not drawn)
cytotoxicity at 70.5 h: 21.7%

Cc1csc2nc3n(c(=O)c12)CCN(C(=O)c1ccncc1)CC3
cytotoxicity at 70.5 h: -7.78%

Cc1ccc(=O)n(CC2(O)CCN(Cc3ccsc3)CC2)n1
cytotoxicity at 70.5 h: -10.6%

CS(=O)(=O)N1CCC(O)(Cn2c(C3CC3)nc3ccccc3c2=O)CC1
cytotoxicity at 70.5 h: -1.88%

O=C(Cn1cccnc1=O)NC(Cc1cccs1)c1ccccn1 (stereo not drawn)
cytotoxicity at 70.5 h: -13.9%

CCN1CCN(c2ncc(-c3cc(C)no3)c(-c3ccoc3C)n2)CC1
cytotoxicity at 70.5 h: -2.3%

Cc1nccc(CN2CCC(c3nnsc3S(C)(=O)=O)CC2)n1
cytotoxicity at 70.5 h: -21.3%

Cc1cc(C)c2cc(CNCc3ccccc3)c3nn(C)c(=O)n3c2c1
cytotoxicity at 70.5 h: 3.71%

CCCN(C(=O)c1ccccn1)c1nc2c(s1)CCc1c-2cnn1C
cytotoxicity at 70.5 h: 3.64%

c1cc(NC2CC3(CCN(Cc4cc[nH]n4)C3)C2)ncn1 (stereo not drawn)
cytotoxicity at 70.5 h: -16.2%

CN(c1ccncn1)C1CC2(CCN(C(=O)CCc3cccs3)C2)C1 (stereo not drawn)
cytotoxicity at 70.5 h: -10.3%

CN(c1ccncn1)C1CC2(CCN(C(=O)c3cccs3)C2)C1 (stereo not drawn)
cytotoxicity at 70.5 h: -16.4%

Cc1ncccc1O[C@H]1CCN(C(=O)c2cccs2)CC[C@@H]1O
cytotoxicity at 70.5 h: -14.1%

CN(C(=O)C1CCCCC1)[C@@H]1CCC[C@@H](N2CCOCC2)[C@@H]1O
cytotoxicity at 70.5 h: -11.9%

O=C(c1ccc(F)cc1F)N1C[C@@H](O)[C@H](N2CCOCC2)C1
cytotoxicity at 70.5 h: -2.76%

NCc1cn(-c2ccccc2C(=O)NCc2ccccc2)cn1
cytotoxicity at 70.5 h: -18.9%

Cc1nc(C(=O)N2CCC(Cc3cnc4[nH]ccc4c3)C2)co1 (stereo not drawn)
cytotoxicity at 70.5 h: 18.9%

COc1cccc(OCC2CCCN(C(C)=O)C2)c1 (stereo not drawn)
cytotoxicity at 70.5 h: -18.9%

CC(C)c1nccn1-c1cccc(C2CCCN(C3CCCC3)C2)n1 (stereo not drawn)
cytotoxicity at 70.5 h: -12.4%

COCCN1CCCC1c1nccnc1Nc1nc(C)cs1 (stereo not drawn)
cytotoxicity at 70.5 h: -21.9%

Cc1ncncc1C(=O)Nc1cnn(CC(=O)NC2CCCC2)c1
cytotoxicity at 70.5 h: -19.5%

Cc1ncccc1O[C@H]1CCN(C(=O)Cc2cccs2)CC[C@@H]1O
cytotoxicity at 70.5 h: -7.99%

Cc1cn[nH]c1C1CCCCN1C(=O)CCN1CCCCCC1 (stereo not drawn)
cytotoxicity at 70.5 h: -36.7%

Cc1cc2c(=O)n3c(nc2s1)CCN(Cc1cnc(C(C)C)nc1)CC3
cytotoxicity at 70.5 h: -14.8%

Cc1cc2cc(C(=O)N3CC[C@H](O)[C@]4(CCCO4)C3)ccc2o1
cytotoxicity at 70.5 h: -18.1%

CC(C)c1nccn1-c1cccc(C2CCCN2S(=O)(=O)N(C)C)n1 (stereo not drawn)
cytotoxicity at 70.5 h: 0.791%

COCC(=O)NC[C@@]1(COc2cnccn2)C[C@@H](O)[C@@H](O)C1
cytotoxicity at 70.5 h: 13.8%

COCC(=O)NC[C@@]1(COc2cccnc2)C[C@@H](O)[C@@H](O)C1
cytotoxicity at 70.5 h: 3.07%

CNC(=O)C(C)(C)N1CCC[C@H]1C(=O)NCCN(C)C
cytotoxicity at 70.5 h: -16.8%

O=S(=O)(N1CCCCC1)N1CCc2nc(C3CCNCC3)ncc2C1
cytotoxicity at 70.5 h: -13.5%

OC[C@H]1CC[C@]2(CC1)CN(Cc1ccccc1F)Cc1ccccc1O2
cytotoxicity at 70.5 h: -3.44%

Cc1ncc(CN2Cc3ccccc3O[C@]3(CC[C@H](CO)CC3)C2)cn1
cytotoxicity at 70.5 h: -2.89%

Cc1cc(-c2cnn(CCNC(=O)c3cccnc3)c2C2CC2)on1
cytotoxicity at 70.5 h: -16.3%

CCOc1ccccc1C(=O)N1CCCC1c1ncc2c(n1)CCNC2 (stereo not drawn)
cytotoxicity at 70.5 h: 22.9%

O=C(O)c1cc(NS(=O)(=O)c2ccc(Cl)s2)ccc1N1CCOCC1
cytotoxicity at 70.5 h: -2.78%

Cc1nc2cc(C3CCN(Cc4cccc(F)c4F)C3)nn2c(O)c1C (stereo not drawn)
cytotoxicity at 70.5 h: -20.4%

COc1cccc(CN2CCC(c3cc(O)nc(C)n3)C2)c1 (stereo not drawn)
cytotoxicity at 70.5 h: -3.89%

CC1(C)CC(N(Cc2ccccc2)Cc2cccnc2)CC(C)(C)N1
cytotoxicity at 70.5 h: 30.7%

Cc1cc(C)nc(Nc2cccc(C3CCCN(C)C3)n2)n1 (stereo not drawn)
cytotoxicity at 70.5 h: 0.625%

O=C(COc1ccccc1)N1C[C@@H](O)[C@H](N2CCCC2)C1
cytotoxicity at 70.5 h: -12.1%
